According to patent US4820694A, “Modifications of 3-O-demethylmycinose in macrocin and lactenocin” (priority 1986, dated 1989):
≈ marks a conversion by molar mass, not a printed value. Where two headings read alike, the source gives them in different places.

Experiments:
[1] = system: Streptococcus pyogenes C203; test: protection of mice experimentally infected with S. pyogenes C203; type: in vivo; details: mice, mg/kg × 2, doses given 1 and 4 hours postinfection, read-out: ED50
Outline: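 Mice experimentally infected with S. pyogenes C203 got two doses of test compound, at 1 and 4 h postinfection. The ED50 is the dose in mg/kg (per dose, given twice) that protected 50% of the animals.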

[2] = system: Mycoplasma gallisepticum 36H; test: broth-dilution microtiter MIC test; type: cell-based; details: Mycoplasmoides gallisepticum, 36H
Protocol: (§1) The MIC's in Table III were determined by standard agar-dilution assays. The MIC's in Table IV were obtained using conventional brothdilution microtiter tests.

Mycoplasma hyorhinis 29E = test: broth-dilution microtiter MIC test; type: cell-based; details: Mycoplasma, 29E
Protocol: as §1

[3] = system: Pasteurella multocida 17E; test: broth-dilution microtiter MIC test; type: cell-based; details: Pasteurella multocida, 17E
Protocol: as §1

Streptococcus sp. 19F = test: broth-dilution microtiter MIC test; type: cell-based; details: Streptococcus, SP.19F
Protocol: as §1

[4] = system: Staphylococcus aureus 19C; test: broth-dilution microtiter MIC test; type: cell-based; details: Staphylococcus aureus, 19C
Protocol: as §1

[5] = system: Mycoplasma gallisepticum 15E; test: broth-dilution microtiter MIC test; type: cell-based; details: Mycoplasmoides gallisepticum, 15E
Protocol: as §1

[6] = system: Pasteurella hemolytica 22C; test: broth-dilution microtiter MIC test; type: cell-based; details: Pasteurella, 22C
Protocol: as §1

[7] = system: Pasteurella hemolytica 23C; test: broth-dilution microtiter MIC test; type: cell-based; details: Pasteurella, 23C
Protocol: as §1

[8] = system: Pasteurella multocida 40G; test: broth-dilution microtiter MIC test; type: cell-based; details: Pasteurella multocida, 40G
Protocol: as §1

[9] = system: Pasteurella hemolytica 41D; test: broth-dilution microtiter MIC test; type: cell-based; details: Pasteurella, 41D
Protocol: as §1

[10] = system: Mycoplasma gallisepticum 29C; test: broth-dilution microtiter MIC test; type: cell-based; details: Mycoplasmoides gallisepticum, 29C
Protocol: as §1

Mycoplasma synoviae 40A = test: broth-dilution microtiter MIC test; type: cell-based; details: Mycoplasmopsis synoviae, 40A
Protocol: as §1

[11] = system: Pasteurella multocida 60A; test: broth-dilution microtiter MIC test; type: cell-based; details: Pasteurella multocida, 60A
Protocol: as §1

[12] = system: Bordetella bronchiseptica; test: broth-dilution microtiter MIC test; type: cell-based; details: Bordetella bronchiseptica; broth-dilution microtiter; read-out: MIC
Protocol: as §1

[13] = system: Pasteurella multocida 22A; test: broth-dilution microtiter MIC test; type: cell-based; details: Pasteurella multocida, 22A
Protocol: as §1

[14] = system: Pasteurella multocida 68C; test: broth-dilution microtiter MIC test; type: cell-based; details: Pasteurella multocida, 68C
Protocol: as §1

[15] = system: Mycoplasma hyopneumoniae S5972; test: broth-dilution microtiter MIC test; type: cell-based; details: Mesomycoplasma hyopneumoniae, S5972
Protocol: as §1

[16] = system: Haemophilus influenzae 76; test: standard agar-dilution MIC assay; type: cell-based; details: Haemophilus influenzae, 76
Protocol: as §1

[17] = system: Staphylococcus epidermidis EPI1; test: standard agar-dilution MIC assay; type: cell-based; details: Staphylococcus epidermidis, EPI1
Protocol: as §1

[18] = system: Streptococcus pyogenes C203; test: standard agar-dilution MIC assay; type: cell-based; details: Streptococcus pyogenes, C203
Protocol: as §1

[19] = system: Pseudomonas aeruginosa X239; test: standard agar-dilution MIC assay; type: cell-based; details: Pseudomonas aeruginosa, X239; agar-dilution; read-out: MIC
Protocol: as §1

[20] = system: Streptococcus Group D X66; test: standard agar-dilution MIC assay; type: cell-based; details: read-out: MIC
Protocol: as §1

[21] = system: Staphylococcus epidermidis 222; test: standard agar-dilution MIC assay; type: cell-based; details: Staphylococcus epidermidis, 222
Protocol: as §1

[22] = system: Staphylococcus aureus X1.1; test: standard agar-dilution MIC assay; type: cell-based; details: Staphylococcus aureus, X1.1
Protocol: as §1

[23] = system: Haemophilus influenzae C.L.; test: standard agar-dilution MIC assay; type: cell-based; details: Haemophilus influenzae
Protocol: as §1

[24] = system: Streptococcus Group D 2041; test: standard agar-dilution MIC assay; type: cell-based; details: GROUPD2041
Protocol: as §1

[25] = system: Staphylococcus aureus X400; test: standard agar-dilution MIC assay; type: cell-based; details: Staphylococcus aureus, X400
Protocol: as §1

[26] = system: Klebsiella pneumoniae X68; test: standard agar-dilution MIC assay; type: cell-based; details: Klebsiella pneumoniae, X68; agar-dilution; read-out: MIC
Protocol: as §1

[27] = system: Staphylococcus aureus V41; test: standard agar-dilution MIC assay; type: cell-based; details: Staphylococcus aureus, V41
Protocol: as §1

Escherichia coli EC14 = test: standard agar-dilution MIC assay; type: cell-based; details: agar-dilution, read-out: MIC
Protocol: as §1

[28] = system: Streptococcus pneumoniae Park I; test: microbe, parasite or virus in culture; type: cell-based; details: Streptococcus pneumoniae
Protocol: as §1

[29] = system: Staphylococcus aureus S13E; test: microbe, parasite or virus in culture; type: cell-based; details: Staphylococcus aureus, S13E
Protocol: as §1

[30] = broth-dilution microtiter, read-out: MIC

`CCC1OC(=O)CC(O)C(C)C(OC2OC(C)C(OC3CC(C)(O)C(O)C(C)O3)C(N(C)C)C2OC(C)=O)C(CC=O)CC(C)C(=O)C=CC(C)=CC1COC1OC(C)C2OC(=O)OC2C1OC` (stereo not shown) [Compound 48] gave an ED50 ([1]; C203, Oral) of 28 mg/kg, an ED50 ([1]; C203, sc, Subcutaneous) of 1.53 mg/kg and an MIC [2] of 50 µg/mL (≈ 51.5 µM). The MIC (Mycoplasma hyorhinis 29E; [30]) was 1.56 µg/mL (≈ 1.61 µM), the MIC ([3]; broth-dilution microtiter, Bovine isolate, read-out: MIC) was 12.5 µg/mL (≈ 12.9 µM) and the MIC (Streptococcus sp. 19F) was 0.39 µg/mL (≈ 0.402 µM). It also gave an MIC [4, 30] of 1.56 µg/mL (≈ 1.61 µM), an MIC [5, 30] of 12.5 µg/mL (≈ 12.9 µM) and an MIC [6, 30] of over 50 µg/mL. The MIC [7] was 50 µg/mL (≈ 51.5 µM), the MIC [8, 30] was 25 µg/mL (≈ 25.8 µM) and the MIC [9] was 50 µg/mL (≈ 51.5 µM). It also gave an MIC [10] of 0.195 µg/mL (≈ 0.201 µM), an MIC (Mycoplasma synoviae 40A; [30]) of 0.097 µg/mL (≈ 0.1 µM) and an MIC ([11]; broth-dilution microtiter, Avian isolate, read-out: MIC) of 25 µg/mL (≈ 25.8 µM). For the same molecule, the MIC [12] was over 50 µg/mL, the MIC [13] was 50 µg/mL (≈ 51.5 µM) and the MIC [14, 30] was 12.5 µg/mL (≈ 12.9 µM). For the same molecule, the MIC [15, 30] was 0.097 µg/mL (≈ 0.1 µM), the MIC ([16]; agar-dilution, Ampicillin-resistant strain, read-out: MIC) was 16 µg/mL (≈ 16.5 µM) and the MIC [17] was 1 µg/mL (≈ 1.03 µM). The MIC ([18]; agar-dilution, read-out: MIC) was 0.5 µg/mL (≈ 0.515 µM), the MIC [19] was over 128 µg/mL and the MIC [20] was 2 µg/mL (≈ 2.06 µM). For the same molecule, the MIC ([21]; agar-dilution, read-out: MIC) was 0.5 µg/mL (≈ 0.515 µM), the MIC [22] was 1 µg/mL (≈ 1.03 µM) and the MIC [23] was 32 µg/mL (≈ 33 µM). For the same molecule, the MIC [24] was 2 µg/mL (≈ 2.06 µM), the MIC [25] was 2 µg/mL (≈ 2.06 µM) and the MIC [26] was over 128 µg/mL. The MIC [27] was 1 µg/mL (≈ 1.03 µM), the MIC (Escherichia coli EC14) was over 128 µg/mL and the MIC ([28]; agar-dilution, read-out: MIC) was 0.12 µg/mL (≈ 0.124 µM). It also gave an MIC [29] of 1 µg/mL (≈ 1.03 µM).
Work on `CCC1OC(=O)CC(O)C(C)C(OC2OC(C)C(O)C(N(C)C)C2O)C(CCOc2ccccc2)CC(C)C(=O)C=CC(C)=CC1COC1OC(C)C2OC(=O)OC2C1OC` (stereo not shown) [Compound 53, 20-DH-20-O-Phenyl-lactenocin 3",4"-Carbonate] yielded an ED50 ([1]; C203, Oral) of 18.7 mg/kg, an ED50 ([1]; C203, sc, Subcutaneous) of 6.1 mg/kg and an MIC [2] of 50 µg/mL (≈ 58 µM). It also gave an MIC (Mycoplasma hyorhinis 29E) of 25 µg/mL (≈ 29 µM), an MIC [3] of 25 µg/mL (≈ 29 µM) and an MIC (Streptococcus sp. 19F) of 3.12 µg/mL (≈ 3.62 µM). For the same molecule, the MIC [4] was 0.78 µg/mL (≈ 0.905 µM), the MIC [5] was 50 µg/mL (≈ 58 µM) and the MIC [6] was 50 µg/mL (≈ 58 µM). For the same molecule, the MIC [7] was 50 µg/mL (≈ 58 µM), the MIC [8] was 50 µg/mL (≈ 58 µM) and the MIC [9] was 50 µg/mL (≈ 58 µM). The MIC [10] was 0.195 µg/mL (≈ 0.226 µM), the MIC (Mycoplasma synoviae 40A) was 1.56 µg/mL (≈ 1.81 µM) and the MIC [11] was 25 µg/mL (≈ 29 µM). For the same molecule, the MIC [12] was over 50 µg/mL, the MIC [13] was 50 µg/mL (≈ 58 µM) and the MIC [14] was 25 µg/mL (≈ 29 µM). It also gave an MIC [15] of 3.12 µg/mL (≈ 3.62 µM), an MIC [16] of 32 µg/mL (≈ 37.1 µM) and an MIC [17] of 1 µg/mL (≈ 1.16 µM). The MIC [18] was 0.5 µg/mL (≈ 0.58 µM), the MIC [19] was over 128 µg/mL and the MIC [20] was 8 µg/mL (≈ 9.28 µM). For the same molecule, the MIC [21] was 0.5 µg/mL (≈ 0.58 µM), the MIC [22] was 1 µg/mL (≈ 1.16 µM) and the MIC [23] was 64 µg/mL (≈ 74.2 µM). The MIC [24] was 8 µg/mL (≈ 9.28 µM), the MIC [25] was 1 µg/mL (≈ 1.16 µM) and the MIC [26] was over 128 µg/mL. It also gave an MIC [27] of 1 µg/mL (≈ 1.16 µM), an MIC (Escherichia coli EC14) of over 128 µg/mL and an MIC [28] of 2 µg/mL (≈ 2.32 µM). For the same molecule, the MIC [29] was 1 µg/mL (≈ 1.16 µM).
In the case of `CCC1OC(=O)CC(O)C(C)C(OC2OC(C)C(O)C(N(C)C)C2O)C(CC=O)CC(C)C(=O)C=CC(C)=CC1COC1OC(C)C2OC(C)(C)OC2C1OC` (stereo not shown) [Compound 55, 3",4"-Isopropylidene Derivative of Lactenocin], the ED50 ([1]; C203, Oral) is reported as over 100 mg/kg, the ED50 ([1]; C203, sc, Subcutaneous) is reported as over 10 mg/kg and the MIC [2, 30] is reported as over 50 µg/mL. It also gave an MIC (Mycoplasma hyorhinis 29E) of 50 µg/mL (≈ 62.7 µM), an MIC [3] of 25 µg/mL (≈ 31.3 µM) and an MIC [4] of 3.12 µg/mL (≈ 3.91 µM). It also gave an MIC [5, 30] of over 50 µg/mL, an MIC [6] of 50 µg/mL (≈ 62.7 µM) and an MIC [7] of 50 µg/mL (≈ 62.7 µM). The MIC [8] was 25 µg/mL (≈ 31.3 µM), the MIC [9] was 50 µg/mL (≈ 62.7 µM) and the MIC [10] was 0.39 µg/mL (≈ 0.489 µM). The MIC (Mycoplasma synoviae 40A) was 3.12 µg/mL (≈ 3.91 µM), the MIC [11] was 50 µg/mL (≈ 62.7 µM) and the MIC [12] was over 50 µg/mL. For the same molecule, the MIC [13] was 25 µg/mL (≈ 31.3 µM), the MIC [15] was 0.78 µg/mL (≈ 0.977 µM) and the MIC [16] was 16 µg/mL (≈ 20.1 µM). The MIC [17] was 2 µg/mL (≈ 2.51 µM), the MIC [18] was 1 µg/mL (≈ 1.25 µM) and the MIC [19] was over 128 µg/mL. It also gave an MIC [20] of 32 µg/mL (≈ 40.1 µM), an MIC [21] of 1 µg/mL (≈ 1.25 µM) and an MIC [22] of 2 µg/mL (≈ 2.51 µM). The MIC [23] was 16 µg/mL (≈ 20.1 µM), the MIC [24] was 16 µg/mL (≈ 20.1 µM) and the MIC [25] was 4 µg/mL (≈ 5.01 µM). For the same molecule, the MIC [26] was over 128 µg/mL, the MIC [27] was 2 µg/mL (≈ 2.51 µM) and the MIC (Escherichia coli EC14) was over 128 µg/mL. For the same molecule, the MIC [28] was 8 µg/mL (≈ 10 µM) and the MIC [29] was 2 µg/mL (≈ 2.51 µM).
